# Where two headings read alike, the source gives them in different places.
# How the values were obtained:
# [1] = tested on: C8166 cell lines infected with HIV-1IIIB; settings: 0.5 mg/ml; for cell viability of HIV-1-infected C8166 cells: 48 hours after HIV-1IIIB infection, MTT, untreated cells = 100%; for cell protecting effect from HIV-1 lysis activity (cell deaths): FIG. 17 and 20
# Procedure: And then, the cytotoxicities were measured through MTT assay as time passed.
# Since C8166 cell lines were sensitive about lysis effect of HIV-1 replication, the present test evaluated a degree of inhibiting HIV-1 replication based on the sensitivity of C8166 cells at lysis activity due to HIV-1 infection in the present experiment.
# Since then, the supernatants of HIV-1IIIB were diluted in complete medium to yield sufficient cytopathicity, and a 100 μl aliquot was added to the wells. Plates were incubated for 24 h, 48 h and 72 h at 37° C. and after each respective incubation, 100 μl of 500 μg/ml MTT solution was added to each well and the plate was incubated for another 4 hours at 37° C. The formazan salt was dissolved in acidified propanol containing 50% DMSO and 4% triton X-100. […] The optical density of formazan formed by untreated cells was taken as 100% of viability.
# [2] = target: T1, HIV-1 reverse transcriptase (Human immunodeficiency virus type 1 group M subtype B, UniProt P05959); type: biochemical; settings: for reverse transcriptase inhibiting activity over concentrations: 0.05, 0.1, 0.25, 0.5, and 1 mg/ml, FIGS. 26, 27
# T1 construct: endogenous in cells; host or cells: C8166 and CEM-SS cells infected with HIV-1RF (lysates)
# [3] = tested on: TZM-b1 cell infected with HIV-1IIIB; settings: for HIV-1 replication (gene reporter): 0.05, 0.1, 0.5, and 1 mg/ml, 48 hours, FIG. 38; for HIV-1 replication inhibition relative to the other samples: among COS-D, COS-T, COS-Y, COS-TD, COS-TY
# Procedure: Briefly, one day before infection, 5×10^4 TZM-d1 cells were seeded in a 24-well flat, and added with 100 μl of HIV-1IIIB supernatant (100 CCID50 (1 μg/ml)) to infect 50% of the cells. […] After incubation, cells were washed with cold PBS and lysed in 300 μl of lysis buffer (Promega Corp., Madison, Wis.). 20 μl of cell lysate was mixed with 100 μl of luciferase substrate (Promega) and light emission was measured for 10 seconds in a luminometer (Tecan Austria GmbH, Austria). In case of β-galactosidase assay, 100 μl of X-gal substrate was mixed with cell lysate in order to stain the HIV-1 replicated cells and light absorption was measured at the optical density of 550 nm.
# [4] = target: HIV-1 reverse transcriptase (UniProt P04585); settings: for reverse transcriptase (RT) activity inhibition: 0.5 mg/ml, FIG. 23
# [5] = tested on: C8166 cell lines infected with HIV-1RF; test: Syncytia formation in C8166 cells infected with HIV-1RF (microscopy, 48 hours); type: cell-based; settings: 0.5 mg/ml; for number of syncytia formation per well versus untreated control: FIG. 22; for syncytia formation observed with a microscope: FIGS. 18, 19, 21
# Procedure: Since then, a degree of syncytia formation was observed by using a microscope.
# When the virus infection stimulating cell fusion was analyzed, the syncytia formation was tested in order to investigate the virus infection.
# Specifically, 1×10^5 C8166 cells in aliquots of 300 μl were seeded in triplicate to a 48-well plate containing 100 μl of serial dilutions of COS-amino acids (each of chitosan oligomer-amino acid conjugate) in complete RPMI-1640 medium with 5% FBS. After 2 hours of incubation, the cells were infected with 100 μl of stock supernatant of HIV-1RF diluted in complete medium at 200 CCID50 (μg/ml). The plates were incubated at 37° C. for 48 hours and the formation of syncytia was determined microscopically by using an inverted microscope (Leica Microsystems, Germany).
# After 2 hours of incubation, the cells were infected with 100 μl of stock supernatant of HIV-1RF diluted in complete medium at 200 CCID50 (μg/ml). The plates were incubated at 37° C. for 48 hours and the formation of syncytia was determined microscopically by using an inverted microscope.
# [6] = tested on: C8166 cells infected with HIV-1RF; test: Syncytia formation inhibition in C8166 infected with HIV-1RF, various concentrations, 96 hours; type: cell-based; settings: for syncytia formation inhibition over concentrations: 0.2, 0.4, 0.6, 0.8, and 1.0 mg/ml, 96 hours, FIGS. 28, 29
# Procedure: Specifically, 1×10^5C8166 cells in aliquots of 300 μl were seeded in triplicate to a 48-well plate containing 100 μl of serial dilutions of COS-N in complete RPMI-1640 medium with 5% FBS. After 2 hours of incubation, the cells were infected with 100 μl of stock supernatant of HIV-1RF diluted in complete medium at 200 CCID50 (μg/ml). The plates were incubated at 37° C. for 96 hours and the formation of syncytia was determined microscopically by using an inverted microscope (Leica Microsystems, Germany). Dextran sulfate having the syncytia formation inhibiting effect was used as a positive control group.
# The syncytia formation effect was measured by using the same method as in Example <4-3>.
# [7] = tested on: 8E5 and MOLT-4 cell lines; test: Syncytia formation in co-culture of 8E5 and MOLT-4 cell lines; type: cell-based; settings: 0.5 mg/ml; for number of syncytia formed with time: FIG. 36; for syncytia formation inhibiting effect compared with control group: positive control AZT-Saq
# Procedure: The number of syncytia formed with time was determined. Mock was an experimental group without the sample and AZT-Saq treated with AZT and saquinavir at the same time was used as a positive control.
# [8] = tested on: H9 cells infected with HIV-1IIIB; test: RT-PCR analysis of HIV-1 gene (Vif, Env, Gag) expression; type: cell-based; settings: for Vif, Env, and Gag genes expressions: 0.05, 0.1, 0.5, and 1 mg/ml, 4 days, FIG. 35; for Env gene expression: as treatment concentrations were increased
# Procedure: RNA in the total cells cultured was isolated by using Trizol reagent (Invitrogen Co., CA, USA). 2 μg of isolated RNA was reverse-transcripted into cDNA using an oligo-(dT) primer (Promega, Madison, Wis., USA). […] A PCR product was isolated by subjecting an electrophoresis on 1.5% agarose gel at 100 V for 10 minutes. The gel was stained with 1 mg/ml of EtBr, and then photographed under UV illumination by using AlphaEas® gel image analysis software (Alpha Innotech., San Leandro, Calif., USA).
# [9] = tested on: H9 cells infected with HIV-1IIIB; test: Western blot analysis of p24 protein amount in cells; type: cell-based; settings: 0.01 to 1 mg/ml; cultured for 4 days; FIG. 34
# Procedure: The total cultured cells were lysised in RIPA buffer solution (Sigma-Aldrich Corp., St. Louis, USA), centrifuged, and then the total protein amount of cell lysate was measured by using Lowry method (BioRad Laboratories, Hercules, Calif.). The aliquot supernatant including the same volume of protein (15 μg) was subjected to 10% or 12% SDS-PAGE gel, transferred on a nitrocellulose membrane (Amersham Pharmacia Biotech., England, UK), and blocked in Tris buffered saline containing 0.1% (v/v) Tween-20 (TBS-T) and 5% skim milk powder for at least 1 hour. The membrane was hybridized with mouse anti-p24 monoclonal antibody (Santa Cruz Biotechnology Inc., CA, USA). All the primary monoclonal antibodies were diluted with TBS-T at a ratio of 1:1000. The antibody was detected with Horseradish peroxidase (HRP)-conjugated anti-mouse IgG secondary antibody for 1 hour. The immune reactive protein was detected by using a chemical fluorescence ECL detecting kit (Amersham Pharmacia Biosciences, England, UK) according to the manufacturer's instruction. The western blot bands were visualized by LAS3000® chemiluminescence (Fujifilm Life Science, Tokyo, Japan).
# [10] = tested on: uninfected C8166 cell lines co-cultured with H9 cells infected with HIV-1IIIB; test: Syncytia formation in co-culture of uninfected C8166 with H9 infected with HIV-1IIIB; type: cell-based; settings: for syncytia formation in co-culture over concentrations: 0.2, 0.4, 0.6, 0.8, and 1 mg/ml, 96 hours, FIGS. 32, 33; for syncytia formation inhibition in co-culture compared with positive control group: positive control Dextran sulfate
# Procedure: After 96 hours, the formed syncytia was counted by using a microscope (100×). Dextran sulfate having the syncytia formation inhibiting effect was used as a positive control group.
# [11] = tested on: CEM-SS cells infected with HIV-1IIIB and HIV-1Saq; settings: 0.5 mg/ml; FIG. 37
# Procedure: Uninfected CEM-SS cells were cultured into individual wells of a 48-well microtiter plate at a density of 3×10^4 cells/well in 400 μl of medium. Diluted HIV-1IIIB and HIV-1Saq stock supernatants (100 μl) were added to appropriate wells to yield a final M.O.I of 1.0 (CCID50). […] After a total of 4 days incubation, in order to measure the amount of p24 production, HIV-1 p24 antigen capture ELISA was performed using the commercial kit (Perkin-Elmer Life Sciences, Boston, Mass.) according to the manufacturer's instruction.
# HIV-1 protease [12] = settings: 0.5 mg/ml; HIV-1RF/HIV-1IIIB; FIG. 24
# Procedure: The amino acid sequence of FRET peptide is made by copying p17/p24 decomposition site by HIV-1 protease on a precursor Gag protein. FRET peptide is decomposed by HIV-1 protease and fluoresces.
# Since then, 20 μl of substrate was added to HIV-1 protease that is pre-cultured at the same temperature for the same period and then slowly well-mixed for 30 to 60 second, completely. Since then, the fluorescence was measured at Ex/Em=340 nm/490 nm. The inhibiting rate was estimated as a relatively value to 100 of the fluorescence of the sample without an inhibitor.
# HIV-1 protease [13] = target: T2, HIV-1 protease (Human immunodeficiency virus type 1 group M subtype B, UniProt P05959); test: Protease assay with protease diluents of C8166 and CEM-SS infected with HIV-1RF, various concentrations; type: biochemical; settings: 0.05, 0.1, 0.25, 0.5, and 1 mg/ml; FIG. 30
# T2 construct: endogenous in cells; host or cells: C8166 and CEM-SS cells infected with HIV-1RF
# Procedure: First, the HIV-1 protease inhibiting activity was measured by using the same method as in Example <3-3> except that the protease diluents of two cell lines, C8166 and CEM-SS infected with HIV-1RF.
# [14] = tested on: HIV-1 protease of HIV-1saq; test: SensoLyte 520 HIV-1 protease FRET assay in saquinavir resistant HIV-1saq; type: biochemical; settings: saquinavir resistant strain; FIG. 25
# Excerpt: Meanwhile, the present inventors examined HIV-1 protease inhibiting effect using other cell lines of HIV-1. They use HIV-1saq that is a cell line having a resistance to saquinavir.
# Saquinavir was used as a positive control group.
# [15] = tested on: H9 cells infected with HIV-1IIIB; test: HIV-1 p24 antigen capture ELISA of culture supernatant; type: cell-based; settings: various concentrations; FIG. 31
# Procedure: In order to measure p24 amount secreted from virus, H9 cells (3×10^6 cells/ml) was cultured at 37° C. for 1 hour in the presence of HIV-1IIIB. The unbound virus was removed from the cells by washing, and re-suspended in the culture medium to be 3×10^5 cells/ml. 1 mL of aliquot was injected to 24-well plate including the medium having the same volume containing COS-E sample. In order to measure the amount of virus secreted in the medium, HIV-1 p24 antigen capture ELISA was performed according to the manufacturer's instruction using a commercial kit (Perkin-Elmer Life Sciences, Boston, Mass.).
# [16] = sample 0.5 mg/ml, mean of HIV-1RF and HIV-1IIIB
Molecule,cell viability of HIV-1-infected C8166 cells [1] [%],HIV-1 replication (gene reporter) [3],reverse transcriptase (RT) activity inhibition [4],"RT Inhibition (%) [4, 16] [%]",number of syncytia formation per well versus untreated control [5],syncytia formation observed with a microscope [5],IC50 (RT inhibition) ([4]; mean of HIV-1RF and HIV-1IIIB) [mg/mL],other results
Chitosan oligomer-Aspartic acid [COS-D],78.8,inhibited the HIV-1 replication depending on the concentration,effectively inhibited,83.4,significantly inhibited,inhibited,,reverse transcriptase inhibiting effect at 0.05 mg/ml ([2]; 0.05 mg/ml): no the reverse transcriptase inhibiting effect; reverse transcriptase activity at low concentrations ([2]; 0.05 mg/ml and 0.1 mg/ml): not inhibited; reverse transcriptase inhibiting activity over concentrations [2]: depending on the concentration
Chitosan oligomer-Tyrosine [COS-Y],,inhibited the HIV-1 replication depending on the concentration,effectively inhibited,83.5,significantly inhibited,inhibited,,reverse transcriptase inhibiting activity over concentrations [2]: depending on the concentration
Chitosan oligomer-Asparagine [COS-N],71.2,,,41.8,significantly inhibited,inhibited,0.954,syncytia formation inhibition over concentrations [6]: depending on the concentration; syncytia formation inhibition compared with positive control group ([6]; positive control Dextran sulfate): more effective
Chitosan oligomer-(Threonine-Aspartic acid) [COS-TD],94.6,inhibited the HIV-1 replication depending on the concentration,effectively inhibited,85.1,more significantly inhibited,rarely formed,0.207,"number of syncytia formed with time [7]: not increased; syncytia formation inhibiting effect compared with control group [7]: high syncytia formation inhibiting effect; cell protecting effect from HIV-1 lysis activity (cell deaths) [1]: high cell protecting effect; Vif, Env, and Gag genes expressions [8]: reduced depending on the treatment concentrations; Env gene expression [8]: significantly inhibited; HIV-1 replication inhibition relative to the other samples [3]: more effective; p24 antigen production (western blot) [9]: inhibited depending on the treatment concentrations; syncytia formation in co-culture over concentrations [10]: inhibited depending on the treated concentration; syncytia formation inhibition in co-culture compared with positive control group [10]: more effective; p24 production inhibiting activity with later addition [11]: reduced as time passes"
Chitosan oligomer-Threonine [COS-T],72.3,inhibited the HIV-1 replication depending on the concentration,,55.3,significantly inhibited,inhibited,0.761,"syncytia formation inhibiting activity at 0.5 mg/ml or more ([6]; 0.5 mg/ml or more, as compared with COS-N): very sharply increased; syncytia formation inhibition over concentrations [6]: depending on the concentration"
Chitosan oligomer-(Threonine-Tyrosine) [COS-TY],,inhibited the HIV-1 replication depending on the concentration,effectively inhibited,85.8,more significantly inhibited,rarely formed,,"number of syncytia formed with time [7]: not increased; syncytia formation inhibiting effect compared with control group [7]: high syncytia formation inhibiting effect; cell protecting effect from HIV-1 lysis activity (cell deaths) [1]: high cell protecting effect; Vif, Env, and Gag genes expressions [8]: reduced depending on the treatment concentrations; Env gene expression [8]: significantly inhibited; HIV-1 replication inhibition relative to the other samples [3]: more effective; p24 antigen production (western blot) [9]: inhibited depending on the treatment concentrations; syncytia formation in co-culture over concentrations [10]: inhibited depending on the treated concentration; syncytia formation inhibition in co-culture compared with positive control group [10]: more effective; p24 production inhibiting activity with later addition [11]: reduced as time passes"
Chitosan oligomer-Glutamic acid [COS-E],,,,32.7,significantly inhibited,inhibited,1.036,HIV-1 protease inhibition (HIV-1 protease [12]): effectively inhibited; HIV-1 protease inhibition over concentrations (HIV-1 protease [13]): depending on the concentration; HIV-1 protease inhibition in HIV-1saq [14]: effectively inhibited; p24 secretion amount (production amount) in culture supernatant [15]: effectively inhibited
"Cc1cn([C@H]2C[C@H](N=[N+]=[N-])[C@@H](CO)O2)c(=O)[nH]c1=O [AZT, zidovudine, reference compound]",,,,,,,,"RT Inhibition (%) ([4]; positive control 2 μM, mean of HIV-1RF and HIV-1IIIB): 82.6%; IC50 ([4]; read-out: IC50 (RT inhibition), mean of HIV-1RF and HIV-1IIIB): 303 µM"

# Reference: patent publication US20140107015A1, “PHARAMACEUTICAL COMPOSITION FOR PREVENTING OR TREATING HUMAN IMMUNODEFICIENCY VIRUS” (priority 2012, published 2014)
